{"source": "ChEMBL document CHEMBL4425183", "about": "“Gold catalyzed double condensation reaction: Synthesis, antimicrobial and cytotoxicity of spirooxindole derivatives” (Bioorg Med Chem Lett, 2016)", "key": {"COLO 320": {"test_system": "COLO 320", "test": "cells", "conditions": "Homo sapiens, COLO 320, read-out: GI", "description": "Cytotoxicity against human COLO320 cells assessed as cell growth inhibition at 156 uM by MTT assay relative to control"}, "Candida albicans [1]": {"test_system": "Candida albicans", "test": "Antifungal activity against Candida albicans MTCC 227 at 1 mg/disc after 48 hrs at 28 degC by disc diffusion method", "type": "functional"}, "Malassezia pachydermatis": {"test_system": "Malassezia pachydermatis", "test": "Antifungal activity against Malassezia pachydermatis at 1 mg/disc after 48 hrs at 28 degC by disc diffusion method", "type": "functional"}, "Candida albicans [2]": {"test_system": "Candida albicans", "test": "Antifungal activity against Candida albicans MTCC 227 after 48 to 72 hrs at 28 degC by two fold serial dilution method", "type": "functional"}, "[3]": {"test_system": "Staphylococcus epidermidis", "test": "Antibacterial activity against Staphylococcus epidermidis MTCC 3615 at 1 mg/disc after 24 hrs at 37 degC by disc diffusion method", "type": "functional"}, "Salmonella typhimurium [4]": {"test_system": "Salmonella typhimurium", "test": "Antibacterial activity against Salmonella typhimurium MTCC 1251 at 1 mg/disc after 24 hrs at 37 degC by disc diffusion method", "type": "functional, Salmonella enterica subsp. enterica serovar Typhimurium"}, "Klebsiella pneumoniae [5]": {"test_system": "Klebsiella pneumoniae", "test": "Antibacterial activity against Klebsiella pneumoniae MTCC 109 at 1 mg/disc after 24 hrs at 37 degC by disc diffusion method", "type": "functional"}, "Bacillus subtilis [6]": {"test_system": "Bacillus subtilis", "test": "Antibacterial activity against Bacillus subtilis MTCC 441 at 1 mg/disc after 24 hrs at 37 degC by disc diffusion method", "type": "functional"}, "Shigella flexneri [7]": {"test_system": "Shigella flexneri", "test": "Antibacterial activity against Shigella flexneri MTCC 1457 at 1 mg/disc after 24 hrs at 37 degC by disc diffusion method", "type": "functional"}, "Micrococcus luteus [8]": {"test_system": "Micrococcus luteus", "test": "Antibacterial activity against Micrococcus luteus MTCC 106 at 1 mg/disc after 24 hrs at 37 degC by disc diffusion method", "type": "functional"}, "Klebsiella aerogenes [9]": {"test_system": "Klebsiella aerogenes", "test": "Antibacterial activity against Enterobacter aerogenes MTCC 111 at 1 mg/disc after 24 hrs at 37 degC by disc diffusion method", "type": "functional"}, "Staphylococcus aureus [10]": {"test_system": "Staphylococcus aureus", "test": "Antibacterial activity against Staphylococcus aureus MTCC 96 at 1 mg/disc after 24 hrs at 37 degC by disc diffusion method", "type": "functional"}, "Staphylococcus aureus [11]": {"test_system": "Staphylococcus aureus", "test": "Antibacterial activity against methicillin-resistant Staphylococcus aureus at 1 mg/disc after 24 hrs at 37 degC by disc diffusion method", "type": "functional"}, "[12]": {"test_system": "Staphylococcus epidermidis", "test": "Antibacterial activity against Staphylococcus epidermidis MTCC 3615 after 24 hrs at 37 degC by two fold serial dilution method", "type": "functional", "conditions": "MTCC 3615, 24 h"}, "Salmonella typhimurium [13]": {"test_system": "Salmonella typhimurium", "test": "Antibacterial activity against Salmonella typhimurium MTCC 1251 after 24 hrs at 37 degC by two fold serial dilution method", "type": "functional, Salmonella enterica subsp. enterica serovar Typhimurium", "conditions": "Salmonella enterica, MTCC 1251, 24 h"}, "Klebsiella pneumoniae [14]": {"test_system": "Klebsiella pneumoniae", "test": "Antibacterial activity against Klebsiella pneumoniae MTCC 109 after 24 hrs at 37 degC by two fold serial dilution method", "type": "functional", "conditions": "MTCC 109, 24 h"}, "Bacillus subtilis [15]": {"test_system": "Bacillus subtilis", "test": "Antibacterial activity against Bacillus subtilis MTCC 441 after 24 hrs at 37 degC by two fold serial dilution method", "type": "functional", "conditions": "MTCC 441, 24 h"}, "Shigella flexneri [16]": {"test_system": "Shigella flexneri", "test": "Antibacterial activity against Shigella flexneri MTCC 1457 after 24 hrs at 37 degC by two fold serial dilution method", "type": "functional", "conditions": "MTCC 1457, 24 h"}, "Micrococcus luteus [17]": {"test_system": "Micrococcus luteus", "test": "Antibacterial activity against Micrococcus luteus MTCC 106 after 24 hrs at 37 degC by two fold serial dilution method", "type": "functional", "conditions": "MTCC 106, 24 h"}, "Klebsiella aerogenes [18]": {"test_system": "Klebsiella aerogenes", "test": "Antibacterial activity against Enterobacter aerogenes MTCC 111 after 24 hrs at 37 degC by two fold serial dilution method", "type": "functional", "conditions": "MTCC 111, 24 h"}, "Staphylococcus aureus [19]": {"test_system": "Staphylococcus aureus", "test": "Antibacterial activity against Staphylococcus aureus MTCC 96 after 24 hrs at 37 degC by two fold serial dilution method", "type": "functional", "conditions": "MTCC 96, 24 h"}, "Staphylococcus aureus [20]": {"test_system": "Staphylococcus aureus", "test": "Antibacterial activity against methicillin-resistant Staphylococcus aureus after 24 hrs at 37 degC by two fold serial dilution method", "type": "functional"}}, "data": [{"smiles": "O=P1(N(CCCl)CCCl)NCCCO1", "note": "(configuration not stated) [CYCLOPHOSPHAMIDE ANHYDROUS]", "values": [{"measurement": "inhibition of growth at 156 µM", "setting": "COLO 320", "value": 90, "unit": "%"}]}, {"smiles": "CC(=O)N1CCN(c2ccc(OCC3COC(Cn4ccnc4)(c4ccc(Cl)cc4Cl)O3)cc2)CC1", "note": "(configuration not stated) [KETOCONAZOLE]", "values": [{"measurement": "inhibition zone (IZ)", "setting": "Candida albicans [1]", "value": 28, "unit": "mm"}, {"measurement": "inhibition zone (IZ)", "setting": "Malassezia pachydermatis", "value": 26, "unit": "mm"}, {"measurement": "MIC", "setting": "Candida albicans [2]", "value": 25, "unit": "µM"}]}, {"smiles": "CN[C@@H]1[C@H](O[C@H]2[C@H](O[C@H]3[C@H](O)[C@@H](O)[C@H](N=C(N)N)[C@@H](O)[C@@H]3N=C(N)N)O[C@@H](C)[C@]2(O)C=O)O[C@@H](CO)[C@H](O)[C@H]1O", "note": "[STREPTOMYCIN]", "values": [{"measurement": "inhibition zone (IZ)", "setting": "[3]", "value": 25, "unit": "mm"}, {"measurement": "inhibition zone (IZ)", "setting": "Salmonella typhimurium [4]", "value": 18, "unit": "mm"}, {"measurement": "inhibition zone (IZ)", "setting": "Klebsiella pneumoniae [5]", "value": 20, "unit": "mm"}, {"measurement": "inhibition zone (IZ)", "setting": "Bacillus subtilis [6]", "value": 25, "unit": "mm"}, {"measurement": "inhibition zone (IZ)", "setting": "Shigella flexneri [7]", "value": 30, "unit": "mm"}, {"measurement": "inhibition zone (IZ)", "setting": "Micrococcus luteus [8]", "value": 26, "unit": "mm"}, {"measurement": "inhibition zone (IZ)", "setting": "Klebsiella aerogenes [9]", "value": 22, "unit": "mm"}, {"measurement": "inhibition zone (IZ)", "setting": "Staphylococcus aureus [10]", "value": 14, "unit": "mm"}, {"measurement": "inhibition zone (IZ)", "setting": "Staphylococcus aureus [11]", "value": 30, "unit": "mm"}, {"measurement": "MIC", "setting": "[12]", "value": 25, "unit": "µM"}, {"measurement": "MIC", "setting": "Salmonella typhimurium [13]", "value": 30, "unit": "µM"}, {"measurement": "MIC", "setting": "Klebsiella pneumoniae [14]", "value": 6.25, "unit": "µM"}, {"measurement": "MIC", "setting": "Bacillus subtilis [15]", "value": 25, "unit": "µM"}, {"measurement": "MIC", "setting": "Shigella flexneri [16]", "value": 6.25, "unit": "µM"}, {"measurement": "MIC", "setting": "Micrococcus luteus [17]", "value": 6.25, "unit": "µM"}, {"measurement": "MIC", "setting": "Klebsiella aerogenes [18]", "value": 25, "unit": "µM"}, {"measurement": "MIC", "setting": "Staphylococcus aureus [19]", "value": 6.25, "unit": "µM"}, {"measurement": "MIC", "setting": "Staphylococcus aureus [20]", "value": 6.25, "unit": "µM"}]}]}
